According to ChEMBL document CHEMBL1201862, “PubChem BioAssay data set” (2004):
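Results reflect a 48-hour exposure of cells in 96-well plates to compound at five concentrations. At the GI50, growth is halved.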 The source made the active and inactive calls. Rule as the data show it: active = GI50 up to about 1.1 µM and inactive = higher.

Columns and labels:
Assay in all cases: NCI tumour cell line growth inhibition, 48 h
[1] = test system: 786-0
[2] = test system: A498
[3] = test system: A549
[4] = test system: ACHN
[5] = test system: CAKI-1
[6] = test system: CCRF-CEM
[7] = test system: COLO 205
[8] = test system: DMS-114
[9] = test system: DMS-273
[10] = test system: EKVX
[11] = test system: HCC 2998
[12] = test system: HCT-116
[13] = test system: HCT-15
[14] = test system: HL-60
[15] = test system: HOP-18
[16] = test system: HOP-62
[17] = test system: HOP-92
[18] = test system: HT-29
[19] = test system: IGROV-1
[20] = test system: K562
[21] = test system: KM-20L2
[22] = test system: KM12
[23] = test system: LXFL 529
[24] = test system: M14
[25] = test system: M19-MEL
[26] = test system: MOLT-4
[27] = test system: Malme-3M
[28] = test system: NCI-H226
[29] = test system: NCI-H23
[30] = test system: NCI-H460
[31] = test system: NCI-H522
[32] = test system: OVCAR-3
[33] = test system: OVCAR-4
[34] = test system: OVCAR-5
[35] = test system: OVCAR-8
[36] = test system: RPMI-8226
[37] = test system: RXF 393
[38] = test system: SF-268
[39] = test system: SF-295
[40] = test system: SF-539
[41] = test system: SK-MEL-28
[42] = test system: SK-MEL-2
[43] = test system: SK-MEL-5
[44] = test system: SK-OV-3
[45] = test system: SN12C
[46] = test system: SNB-19
[47] = test system: SNB-75
[48] = test system: SNB-78
[49] = test system: SW-620
[50] = test system: TK-10
[51] = test system: U-251
[52] = test system: UACC-257
[53] = test system: UACC-62
[54] = test system: XF498
[55] = test system: DLD-1
[56] = test system: LOX IMVI
[57] = test system: SR
[58] = test system: UO-31
[59] = test system: RXF 631

NC1=NCCC1(c1ccccc1)c1ccccn1 (stereo not given)
GI50 [1]: > 100 µM (inactive)
GI50 [2]: > 100 µM (inactive)
GI50 [3]: > 100 µM (inactive)
GI50 [4]: > 100 µM (inactive)
GI50 [5]: > 100 µM (inactive)
GI50 [6]: > 100 µM (inactive)
GI50 [7]: > 100 µM (inactive)
GI50 [8]: > 100 µM (inactive)
GI50 [9]: > 100 µM (inactive)
GI50 [10]: > 100 µM (inactive)
GI50 [11]: > 100 µM (inactive)
GI50 [12]: > 100 µM (inactive)
GI50 [13]: > 100 µM
GI50 [14]: > 100 µM (inactive)
GI50 [15]: > 100 µM (inactive)
GI50 [16]: > 100 µM (inactive)
GI50 [17]: > 100 µM (inactive)
GI50 [18]: > 100 µM (inactive)
GI50 [19]: > 100 µM (inactive)
GI50 [20]: > 100 µM (inactive)
GI50 [21]: > 100 µM (inactive)
GI50 [22]: > 100 µM (inactive)
GI50 [23]: > 100 µM (inactive)
GI50 [24]: > 100 µM (inactive)
GI50 [25]: > 100 µM (inactive)
GI50 [26]: > 100 µM (inactive)
GI50 [27]: > 100 µM (inactive)
GI50 [28]: > 100 µM (inactive)
GI50 [29]: > 100 µM (inactive)
GI50 [30]: > 100 µM (inactive)
GI50 [31]: > 100 µM (inactive)
GI50 [32]: > 100 µM (inactive)
GI50 [33]: > 100 µM (inactive)
GI50 [34]: > 100 µM (inactive)
GI50 [35]: > 100 µM (inactive)
GI50 [36]: > 100 µM (inactive)
GI50 [37]: > 100 µM (inactive)
GI50 [38]: > 100 µM (inactive)
GI50 [39]: > 100 µM (inactive)
GI50 [40]: > 100 µM (inactive)
GI50 [41]: > 100 µM (inactive)
GI50 [42]: > 100 µM (inactive)
GI50 [43]: > 100 µM (inactive)
GI50 [44]: > 100 µM (inactive)
GI50 [45]: > 100 µM (inactive)
GI50 [46]: > 100 µM (inactive)
GI50 [47]: > 100 µM (inactive)
GI50 [48]: > 100 µM (inactive)
GI50 [49]: > 100 µM (inactive)
GI50 [50]: > 100 µM (inactive)
GI50 [51]: > 100 µM (inactive)
GI50 [52]: > 100 µM (inactive)
GI50 [53]: > 100 µM (inactive)
GI50 [54]: > 100 µM (inactive)

CCN(CC)CCC1CC/C(=C\c2ccc(OC)cc2)C1=O (stereo not given)
GI50 [1]: > 100 µM (inactive)
GI50 [2]: 74.8 µM (inactive)
GI50 [3]: > 100 µM (inactive)
GI50 [4]: > 100 µM (inactive)
GI50 [5]: > 100 µM (inactive)
GI50 [6]: > 100 µM (inactive)
GI50 [7]: 18 µM (inactive)
GI50 [55]: > 100 µM (inactive)
GI50 [8]: 38.6 µM (inactive)
GI50 [9]: > 100 µM (inactive)
GI50 [10]: > 100 µM (inactive)
GI50 [11]: > 100 µM (inactive)
GI50 [12]: 87.9 µM (inactive)
GI50 [13]: 38.7 µM
GI50 [14]: 47.8 µM (inactive)
GI50 [15]: > 100 µM (inactive)
GI50 [16]: > 100 µM (inactive)
GI50 [17]: 39.5 µM (inactive)
GI50 [18]: 39.3 µM (inactive)
GI50 [19]: > 100 µM (inactive)
GI50 [20]: 40 µM (inactive)
GI50 [21]: 30.3 µM (inactive)
GI50 [22]: > 100 µM (inactive)
GI50 [56]: > 100 µM (inactive)
GI50 [23]: 58.5 µM (inactive)
GI50 [24]: 35.5 µM (inactive)
GI50 [25]: 54.8 µM (inactive)
GI50 [26]: 59.6 µM (inactive)
GI50 [27]: > 100 µM (inactive)
GI50 [28]: > 100 µM (inactive)
GI50 [31]: 60.7 µM (inactive)
GI50 [32]: > 100 µM (inactive)
GI50 [33]: > 100 µM (inactive)
GI50 [34]: > 100 µM (inactive)
GI50 [35]: > 100 µM (inactive)
GI50 [36]: 40.9 µM (inactive)
GI50 [37]: 42.3 µM (inactive)
GI50 [38]: > 100 µM (inactive)
GI50 [39]: > 100 µM (inactive)
GI50 [40]: > 100 µM (inactive)
GI50 [41]: 74.8 µM (inactive)
GI50 [42]: > 100 µM (inactive)
GI50 [43]: 23.6 µM (inactive)
GI50 [45]: > 100 µM (inactive)
GI50 [46]: > 100 µM (inactive)
GI50 [47]: > 100 µM (inactive)
GI50 [48]: 81.1 µM (inactive)
GI50 [57]: 55.8 µM (inactive)
GI50 [49]: > 100 µM (inactive)
GI50 [50]: > 100 µM (inactive)
GI50 [51]: > 100 µM (inactive)
GI50 [52]: 32 µM (inactive)
GI50 [53]: 17.5 µM (inactive)
GI50 [58]: 58.1 µM (inactive)
GI50 [54]: 49.8 µM (inactive)

COC(=O)C1=CC(=O)C(C(=O)Nc2ccc(OC)cc2)C(c2ccccc2)O1 (stereo not given)
GI50 [1]: 20.7 µM (inactive)
GI50 [2]: 29.2 µM (inactive)
GI50 [3]: 28.1 µM (inactive)
GI50 [4]: 41 µM (inactive)
GI50 [5]: 25.2 µM (inactive)
GI50 [6]: > 77.3 µM (inactive)
GI50 [7]: > 100 µM (inactive)
GI50 [55]: > 75.5 µM (inactive)
GI50 [8]: 29.7 µM (inactive)
GI50 [9]: 37.5 µM (inactive)
GI50 [10]: 44.1 µM (inactive)
GI50 [11]: > 53.8 µM (inactive)
GI50 [12]: 28.6 µM (inactive)
GI50 [13]: 40.6 µM
GI50 [14]: > 84.3 µM (inactive)
GI50 [16]: 24 µM (inactive)
GI50 [17]: 24 µM (inactive)
GI50 [18]: > 66.5 µM (inactive)
GI50 [19]: 20.5 µM (inactive)
GI50 [20]: > 67.6 µM (inactive)
GI50 [21]: > 78.2 µM (inactive)
GI50 [22]: > 100 µM (inactive)
GI50 [56]: 45.1 µM (inactive)
GI50 [23]: 25.9 µM (inactive)
GI50 [24]: 33.1 µM (inactive)
GI50 [26]: > 74.5 µM (inactive)
GI50 [27]: > 53 µM (inactive)
GI50 [28]: 21.9 µM (inactive)
GI50 [29]: 21.4 µM (inactive)
GI50 [30]: 43.9 µM (inactive)
GI50 [31]: 28 µM (inactive)
GI50 [32]: 22.7 µM (inactive)
GI50 [33]: 28.4 µM (inactive)
GI50 [34]: > 100 µM (inactive)
GI50 [35]: 34.6 µM (inactive)
GI50 [36]: 54.5 µM (inactive)
GI50 [37]: 23.5 µM (inactive)
GI50 [59]: 37.2 µM (inactive)
GI50 [38]: 17.8 µM (inactive)
GI50 [39]: 24 µM (inactive)
GI50 [40]: 21.4 µM (inactive)
GI50 [41]: 37.8 µM (inactive)
GI50 [42]: > 81.7 µM (inactive)
GI50 [43]: 25.7 µM (inactive)
GI50 [44]: 28.8 µM (inactive)
GI50 [45]: 47.5 µM (inactive)
GI50 [46]: 18.1 µM (inactive)
GI50 [47]: 23.1 µM (inactive)
GI50 [48]: 37.9 µM (inactive)
GI50 [57]: 44.5 µM (inactive)
GI50 [49]: 40.5 µM (inactive)
GI50 [50]: 31.6 µM (inactive)
GI50 [51]: 21 µM (inactive)
GI50 [52]: 72.8 µM (inactive)
GI50 [53]: 32.2 µM (inactive)
GI50 [58]: 30.5 µM (inactive)
